Several values for one entry are separate records, joined by “and”; a condition that tells them apart may be missing. Equal values may be shown once.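 In this assay, cells in 96-well plates receive the compound at five concentrations for 48 hours. Endpoints are linearly interpolated between the surrounding concentrations. Here, GI50 denotes the concentration required for 50% inhibition of growth. TGI: total growth inhibition.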
Tests used:
Assay in all cases: NCI tumour cell line growth inhibition, 48 h
[1] = tested on: EKVX NSCLC
[2] = tested on: HCT-15 colon
[3] = tested on: LOX IMVI melanoma
[4] = tested on: M14 melanoma
[5] = tested on: MOLT-4 leukemia
[6] = tested on: NCI-H226 lung
[7] = tested on: SNB-19 CNS
[8] = tested on: SNB-75 CNS
[9] = tested on: SW-620 colon
[10] = tested on: U251 CNS

Row | SMILES | TGI [1] | TGI [2] | TGI [3] | TGI [4] | TGI [5] | TGI [6] | TGI [7] | TGI [8] | TGI [9] | TGI [10] | GI50 [1] | GI50 [2] | GI50 [3] | GI50 [4] | GI50 [5] | GI50 [6] | GI50 [7] | GI50 [8] | GI50 [9] | GI50 [10]
1 | CCOC(=O)C#Cc1ccc([N+](=O)[O-])cc1 | 4.71 µM | 4.33 µM | 2.77 µM | 5.34 µM | 5.22 µM | 7.78 µM | 25.7 µM | 7.88 µM | 7.43 µM | 3 µM | – | – | – | – | – | – | – | – | – | –
2 | COc1cc2c(Nc3ccc(Br)cc3F)ncnc2cc1OCC1CCN(C)CC1 | 10.3 µM and > 10 µM | 11.5 µM and > 10 µM | 8.83 µM and > 10 µM | 3.62 µM and 3.66 µM | 15.5 µM and > 10 µM | 18.8 µM and > 10 µM | 18.3 µM and > 10 µM | 5.79 µM and > 10 µM | 15.7 µM and > 10 µM | 17.1 µM and > 10 µM | 0.286 µM and 0.401 µM | 2.27 µM and 2.95 µM | 2.37 µM and 3.39 µM | 1.91 µM and 1.74 µM | 3.97 µM and 9.42 µM | 5.23 µM and > 10 µM | 4.7 µM and > 10 µM | 0.737 µM and 1.13 µM | 4.69 µM and > 10 µM | 4.81 µM and 7.68 µM
3 | CC(C)NC(=O)OCc1c(COC(=O)NC(C)C)c(-c2ccc[n+](COC(=O)C3CC3)c2)n2c1CCC2 | > 100 µM | > 100 µM | > 100 µM | > 100 µM | > 100 µM | > 100 µM | > 100 µM | > 100 µM | > 100 µM | > 100 µM | – | – | – | – | – | – | – | – | – | –
4 | O=C1/C(=C/c2ccccc2)CN(CCC(=O)N2C/C(=C\c3ccccc3)C(=O)/C(=C/c3ccccc3)C2)C/C1=C\c1ccccc1 | 67.5 µM | 45.1 µM | 4.32 µM | > 77.9 µM | > 100 µM | 41.3 µM | > 93.4 µM | 35.3 µM | 49.8 µM | 11.3 µM | 18.2 µM | 0.906 µM | 0.628 µM | 4.13 µM | 2.6 µM | 12.7 µM | 13.2 µM | 10.7 µM | 0.495 µM | 1.29 µM
5 | CN(C)c1ccc2cc(-c3cc4c(oc3=O)-c3ccccc3OC4O)c(=O)oc2c1 (stereo unspecified) | > 25 µM | 8.9 µM | 7.3 µM | 9.31 µM | 5.51 µM | 7.08 µM | 12.2 µM | 24 µM | > 25 µM | 15.7 µM | 2.18 µM | 3.81 µM | 3.52 µM | 4.73 µM | 0.919 µM | 3.28 µM | 3.56 µM | 5.96 µM | 15.6 µM | 5.85 µM
6 | CC1OC(O[C@H]2/C=C/C=C/C=C/C=C/C=C/C=C/C=C/[C@H](C)[C@@H](O)[C@@H](C)[C@H](C)OC(=O)C[C@H](O)C[C@H](O)CC[C@@H](O)[C@H](O)C[C@H](O)C[C@]3(O)C[C@H](O)[C@@H](C(=O)O)[C@H](C2)O3)C(O)C(N)C1O (stereo partly specified) | 27.8 µM | 60.9 µM | > 50.7 µM | 29.2 µM | 75.4 µM | > 100 µM | 50.2 µM | 61.7 µM | 32.8 µM | 40.6 µM | 11.1 µM | 44.7 µM | 15.2 µM | 11 µM | 29.2 µM | – | 37.8 µM | 32.7 µM | – | 14.3 µM
7 | CC(=O)NC1C(OCc2ccccc2)OC(COC(=O)CCCCCNc2ccc([N+](=O)[O-])c3[nH]c4ccc(O)cc4c(=O)c23)C(O)C1OC(C)C(=O)N[C@@H](C)C(=O)N[C@H](CCC(=O)OCc1ccccc1)C(N)=O (stereo partly specified) | 17.3 µM | 3.67 µM | 10.7 µM | 3.15 µM | 5.56 µM | 12.3 µM | 19.6 µM | 13.2 µM | 4.42 µM | 7.04 µM | – | – | – | – | – | – | – | – | – | –
8 | C[C@@H](NC1CCC[C@@H]1O)c1ccccc1 (stereo partly specified) | > 100 µM | > 100 µM | > 100 µM | > 100 µM | > 100 µM | > 100 µM | > 100 µM | > 100 µM | > 100 µM | > 100 µM | – | – | – | – | – | – | – | – | – | –
9 | O=c1ccccc(-c2ccc(-c3ccco3)cc2)c1O | 7.9 µM | 41.2 µM | 11.2 µM | 6.11 µM | 51.5 µM | 23 µM | 22.9 µM | > 100 µM | 29.1 µM | 12.7 µM | 0.406 µM | 0.373 µM | 0.472 µM | 0.665 µM | 0.501 µM | 2.31 µM | 1.04 µM | 0.994 µM | 0.438 µM | 0.87 µM
10 | O=C(O[C@H]1CN[C@H](C#Cc2cc3ncnc(Nc4ccc(OCc5cccc(F)c5)c(Cl)c4)c3s2)C1)N1CCOCC1 | 24.2 µM | > 25 µM | > 25 µM | > 25 µM | 23.2 µM | 12 µM | > 25 µM | > 25 µM | > 25 µM | > 25 µM | 0.6 µM | 8.09 µM | 7.72 µM | 12.6 µM | 6 µM | 5.32 µM | > 25 µM | 7.73 µM | 12.2 µM | 8.7 µM
11 | CCn1cc(C(=O)N/N=C/c2cccc(F)c2)c(=O)c2cc(F)c(N3CCNC(C)C3)c(F)c21 (stereo unspecified) | 3.06 µM | 2.84 µM | 3.21 µM | 3.37 µM | 3.4 µM | 4.13 µM | 3.15 µM | 2.87 µM | 3.17 µM | 3.03 µM | 1.6 µM | 1.46 µM | 1.71 µM | 1.82 µM | 1.75 µM | 1.97 µM | 1.7 µM | 1.52 µM | 1.68 µM | 1.61 µM
12 | COc1cc2ccnc3c2c(c1OC)CC1CC(O)C(OC)CC31 (stereo unspecified) | 88.6 µM | > 100 µM | > 100 µM | > 100 µM | > 100 µM | > 100 µM | > 100 µM | > 100 µM | > 100 µM | > 100 µM | – | – | – | – | – | – | – | – | – | –
13 | N/C(=N\c1nc2ccccc2s1)NC(=O)Nc1ccccc1Cl | > 100 µM | 18.9 µM | 5.92 µM | 2.14 µM | > 56.6 µM | 19.2 µM | > 69.5 µM | 0.214 µM | > 52.3 µM | 5.57 µM | 0.427 µM | 0.0643 µM | 0.144 µM | 0.0509 µM | 0.167 µM | 0.429 µM | 0.201 µM | 0.0336 µM | 0.0883 µM | 0.122 µM
14 | O=S(=O)(NCCCNc1cc(-c2cn(-c3ccccc3)nc2-c2cccc(O)c2)ccn1)c1cccc2ccccc12 | > 100 µM | 6.59 µM | 3.29 µM | 5.3 µM | – | 45.7 µM | > 100 µM | > 100 µM | 10 µM | 13.1 µM | 3.99 µM | 1.8 µM | 1.56 µM | 2.14 µM | – | 3.4 µM | 5.1 µM | 2.35 µM | 2.75 µM | 1.78 µM

— PubChem BioAssay (NCI)
